Reference: PubChem BioAssay AID256 (DTP/NCI, 2004)
Where “and” joins values, the source holds several entries; their conditions need not be identical. Equal values may be shown once. Toxic doses and inconclusive results are not listed. How the source made its calls: active means survival T/C of 150% or more; inactive means T/C below 125% in these data.

Test system: CD2F1 mice, L1210 leukemia ip, survival T/C
Assay: NCI In Vivo Anticancer Drug Screen. Data for tumor model L1210 Leukemia (intraperitoneal) in CD2F1 (CDF1) mice
Settings: endpoint: mean survival time, higher = longer survival
Method in brief: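 Activity against a transplanted murine tumor was judged by comparing the compound group with a vehicle group. The outcome in the treated animals was divided by that in the controls.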

[1] = dose: 100.0 mg/kg/injection, schedule: Q04DX003 (ip), vehicle: saline with Tween-80
[2] = dose: 200.0 mg/kg/injection, schedule: Q04DX003 (ip), vehicle: saline with Tween-80
[3] = dose: 400.0 mg/kg/injection, schedule: Q04DX003 (ip), vehicle: saline with Tween-80
[4] = dose: 50.0 mg/kg/injection, schedule: Q01DX009 (ip), vehicle: Klucel (hydroxypropylcellulose) (HPC)
[5] = dose: 100.0 mg/kg/injection, schedule: Q01DX009 (ip), vehicle: Klucel (hydroxypropylcellulose) (HPC)

Measured: T/C

CCN(CC)C(=O)c1cccc(COc2ccc(N3C(N)=NC(N)=NC3(C)C)cc2Cl)c1
inactive: dose: 0.2 mg/kg/injection, schedule: Q01DX009 (ip), vehicle: saline 98 % of control | dose: 0.4 mg/kg/injection, schedule: Q01DX009 (ip), vehicle: saline 98 % of control | dose: 0.8 mg/kg/injection, schedule: Q01DX009 (ip), vehicle: saline 100 % of control | dose: 1.56 mg/kg/injection, schedule: Q01DX009 (ip), vehicle: saline 96 % of control | dose: 3.13 mg/kg/injection, schedule: Q01DX009 (ip), vehicle: saline 100 % of control | dose: 6.25 mg/kg/injection, schedule: Q01DX009 (ip), vehicle: saline 96 % of control | dose: 12.5 mg/kg/injection, schedule: Q01DX009 (ip), vehicle: saline 100 % of control

NC(=S)NC(=O)c1ccccc1
inactive: [1] 94 % of control | [2] 94 % of control | [3] 94 % of control

CC(C)C1=CC23CCC4C(C)(C(=O)O)CCCC4(C)C2CC1OO3 (stereo unspecified)
inactive: [1] 93 % of control | [2] 92 % of control | [3] 95 % of control

COC(Cc1ccccc1)(c1ccccc1)c1ccccc1
inactive: dose: 100.0 mg/kg/injection, schedule: Q04DX002 (ip), vehicle: saline with Tween-80 95 % of control | dose: 200.0 mg/kg/injection, schedule: Q04DX002 (ip), vehicle: saline with Tween-80 102 % of control | dose: 400.0 mg/kg/injection, schedule: Q04DX002 (ip), vehicle: saline with Tween-80 91 % of control

O=CC1C2C=CCC12 (stereo unspecified)
inactive: dose: 100.0 mg/kg/injection, schedule: Q01DX009 (ip), vehicle: saline sonified 102 % of control | [1] 95 % of control | dose: 200.0 mg/kg/injection, schedule: Q01DX009 (ip), vehicle: saline sonified 102 % of control | [2] 95 % of control | dose: 400.0 mg/kg/injection, schedule: Q01DX009 (ip), vehicle: saline sonified 91 % of control | [3] 95 % of control

CC(C)C(Br)C(=O)NCC(=O)NCC(=O)O (stereo unspecified)
inactive: [1] 101 % of control | [2] 100 % of control | [3] 92 % of control

CNC(=O)OCc1c(COC(=O)NC)c(C)n(-c2ccc(OC)cc2)c1C
inactive: dose: 3.12 mg/kg/injection, schedule: Q01DX009 (ip), vehicle: Klucel (hydroxypropylcellulose) (HPC) 101 % of control and 106 % of control | dose: 6.25 mg/kg/injection, schedule: Q01DX009 (ip), vehicle: Klucel (hydroxypropylcellulose) (HPC) 101 % of control and 106 % of control | dose: 12.5 mg/kg/injection, schedule: Q01DX009 (ip), vehicle: Klucel (hydroxypropylcellulose) (HPC) 113 % of control and 102 % of control | dose: 25.0 mg/kg/injection, schedule: Q01DX009 (ip), vehicle: Klucel (hydroxypropylcellulose) (HPC) 121 % of control and 98 % of control | [4] 116 % of control and 121 % of control | [5] 87 % of control

S=c1[nH]c2ccccc2n1CCc1ccncc1
inactive: dose: 100.0 mg/kg/injection, schedule: Q#A X016 (ip), vehicle: saline 108 % of control | dose: 200.0 mg/kg/injection, schedule: Q#A X016 (ip), vehicle: saline 95 % of control | dose: 400.0 mg/kg/injection, schedule: Q## X016 (ip), vehicle: saline 102 % of control | dose: 400.0 mg/kg/injection, schedule: Q#A X016 (ip), vehicle: saline 98 % of control | dose: 800.0 mg/kg/injection, schedule: Q## X016 (ip), vehicle: saline 100 % of control | dose: 1600.0 mg/kg/injection, schedule: Q## X016 (ip), vehicle: saline 100 % of control

COc1ccc(NC(=O)Oc2ccc(NC(C)=O)cc2)c(Cl)c1
inactive: [4] 100 % of control | [5] 100 % of control | dose: 200.0 mg/kg/injection, schedule: Q01DX009 (ip), vehicle: Klucel (hydroxypropylcellulose) (HPC) 107 % of control

N=C(N)Sc1ccccn1
inactive: dose: 12.5 mg/kg/injection, schedule: Q01DX009 (ip), vehicle: suspension in saline 98 % of control | dose: 25.0 mg/kg/injection, schedule: Q01DX009 (ip), vehicle: suspension in saline 108 % of control | dose: 50.0 mg/kg/injection, schedule: Q01DX009 (ip), vehicle: suspension in saline 93 % of control | dose: 100.0 mg/kg/injection, schedule: Q01DX009 (ip), vehicle: suspension in saline 93 % of control | dose: 200.0 mg/kg/injection, schedule: Q01DX009 (ip), vehicle: suspension in saline 87 % of control | dose: 400.0 mg/kg/injection, schedule: Q01DX009 (ip), vehicle: suspension in saline 90 % of control

CCCCCC#CC1OC12CCCCC2 (stereo unspecified)
inactive: dose: 12.5 mg/kg/injection, schedule: Q01DX009 (sc), vehicle: saline with Tween-80 97 % of control | dose: 25.0 mg/kg/injection, schedule: Q01DX009 (sc), vehicle: saline with Tween-80 104 % of control | dose: 50.0 mg/kg/injection, schedule: Q01DX009 (sc), vehicle: saline with Tween-80 98 % of control | dose: 100.0 mg/kg/injection, schedule: Q01DX009 (sc), vehicle: saline with Tween-80 103 % of control | dose: 200.0 mg/kg/injection, schedule: Q01DX009 (sc), vehicle: saline with Tween-80 98 % of control
